Experimental data reported in patent publication US20240398962A1, “DENDRIMER-GLUTAMINE ANTAGONIST CONJUGATES AND METHODS OF USE THEREOF” (The Johns Hopkins University, priority 2021, published 2024).

Test system: glutaminase
Assay: not given
Conditions: cited from earlier work
In the case of `[N-]=[N+]=CC(=O)CC[C@H](N)C(=O)O` [DON, 6-diazo-5-oxo-L-norleucine], the “Inhibition of glutamine-utilizing enzymes including glutaminase” value is given as “low micromolar levels”.

Test system: not listed separately
Assay: Stability of the prepared product on storage
Assay type: physicochemical
Conditions: should be stored at −80° C.
Protocol: Piperidine (1.00 mL, 10.3 mmol, 20 equiv.) was added and the reaction mixture was stirred at rt for 2 h. The solvent was evaporated and the residue was chromatographed on silica gel (CHCl3/MeOH 1:1+2% Et3N) to afford the desired product I (165 mg, 73%) as a yellowish oil. The prepared product I is very unstable and should be stored at −80° C.
In the case of `CC(C)OC(=O)[C@H](CCC(=O)C=[N+]=[N-])NP(=O)(OCCCCN)Oc1ccccc1` (stereo partly drawn) [I, Isopropyl (2S)-2-(((4-aminobutoxy)(phenoxy)phosphoryl)amino)-6-diazo-5-oxohexanoate], the “Stability of prepared product” value is reported as “very unstable”.

Test system: not listed separately
Assay: Liver homogenate stability (compound disappearance by LC-MS/MS)
Assay type: in vitro ADME
Conditions: 20 μm, 37° C.
Protocol: Liver or EL4 lymphoma tumor tissues were washed and diluted 10-fold in 0.1 M potassium phosphate buffer and homogenized using a probe sonicator. To evaluate the stability of the analogs 1 mL aliquots were made of each matrix and the analogs were spiked to a final assay concentration of 20 μm. Spiked samples were incubated in an orbital shaker at 37° C. for 1 h, following which reactions were quenched in triplicate with three volumes of acetonitrile containing the internal standard (IS; losartan: 0.5 μm). The samples were vortex-mixed for 30 s and centrifuged at 10 000 g for 10 min at 4° C. Fifty microliters of the supernatant was diluted with 50 μL of water and transferred to a 250 μL polypropylene vial sealed with a Teflon cap. Compound disappearance was monitored over time using liquid chromatography tandem mass spectrometry (LC-MS/MS).
In the case of `CC(C)C[C@H](NC(=O)OCC1c2ccccc2-c2ccccc21)C(=O)N[C@@H](CCC(=O)C=[N+]=[N-])C(=O)N[C@@H](Cc1ccccc1)C(=O)NCCOCCOCCOCCOCCC(=O)O` [VI, (5S,8S,11S)-11-Benzyl-8-(4-diazo-3-oxobutyl)-1-(9H-fluoren-9-yl)-5-isobutyl-3,6,9,12-tetraoxo-2,16,19,22,25-pentaoxa-4,7,10,13-tetraazaoctacosane-28-oic acid], the “Liver homogenate stability (% remaining at 1 h incubation)” value is reported as 12%. For `CC(C)C[C@H](NC(=O)COCCN)C(=O)N[C@@H](CCC(=O)C=[N+]=[N-])C(=O)OC(C)(C)C` [II, t-Butyl (S)-2-((S)-2-(2-(2-aminoethoxy)acetamido)-4-methylpentanamido)-6-diazo-5-oxohexanoate], the “Liver homogenate stability (% remaining at 1 h incubation)” value was 94%. For `CC(C)C[C@H](NC(=O)OCC1c2ccccc2-c2ccccc21)C(=O)N[C@@H](CCC(=O)C=[N+]=[N-])C(=O)N[C@@H](Cc1ccccc1)C(=O)NCCOCCOCCOCCC(=O)O` [VII, (5S,8S,11S)-11-benzyl-8-(4-diazo-3-oxobutyl)-1-(9H-fluoren-9-yl)-5-isobutyl-3,6,9,12-tetraoxo-2,16,19,22-tetraoxa-4,7,10,13-tetraazapentacosan-25-oic acid], the “Liver homogenate stability (% remaining at 1 h incubation)” value was 0%. With `CC(C)C[C@H](NC(=O)COCCN)C(=O)N[C@@H](CCC(=O)C=[N+]=[N-])C(=O)OC(C)C` [V, Isopropyl (S)-2-((S)-2-(2-(2-aminoethoxy)acetamido)-4-methylpentanamido)-6-diazo-5-oxohexanoate] the “Liver homogenate stability (% remaining at 1 h incubation)” value was 17%. In the case of `CC(C)C[C@H](NC(=O)CCOCCOCCN)C(=O)N[C@@H](CCC(=O)C=[N+]=[N-])C(=O)OC(C)C` [IV, Isopropyl (2S,5S)-15-amino-2-(4-diazo-3-oxobutyl)-5-isobutyl-4,7-dioxo-10,13-dioxa-3,6-diazapentadecanoate], the “Liver homogenate stability (% remaining at 1 h incubation)” value is reported as 0%. With `CC(C)OC(=O)[C@H](CCC(=O)C=[N+]=[N-])NP(=O)(OCCCCN)Oc1ccccc1` (stereo partly drawn) [I, Isopropyl (2S)-2-(((4-aminobutoxy)(phenoxy)phosphoryl)amino)-6-diazo-5-oxohexanoate] the “Liver homogenate stability (% remaining at 1 h incubation)” value was 32%. For `CC(C)C[C@H](NC(=O)CCOCCOCCN)C(=O)N[C@@H](CCC(=O)C=[N+]=[N-])C(=O)OC(C)(C)C` [III, t-Butyl (2S,5S)-15-amino-2-(4-diazo-3-oxobutyl)-5-isobutyl-4,7-dioxo-10,13-dioxa-3,6-diazapentadecanoate], the “Liver homogenate stability (% remaining at 1 h incubation)” value was 79%.
